Source: US6376497B1, “Antifungal azole derivatives having a fluorinated vinyl group and process for preparing same” (Korea Research Institute of Chemical Technology, priority 1999, dated 2002)

Experiments:
Experiment in all cases: In vitro antifungal activity, microbroth dilution MIC
Format in all cases: cell-based
Details in all cases: RPMI-1640, 35° C., 4 to 48 hours, no growth observed
[1] = tested on: Candida albicans A. 10231
In short: (§1)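 Broth microdilution adapted from NCCLS M27, in RPMI-1640 with 0.165 M MOPS, pH 7.0. Yeast or mould inoculum at 2×10^3 CFU/ml was mixed 1:1 with DMSO-derived compound solutions (200 to 0.10 μg/ml before mixing) and incubated at 35 °C for 4 to 48 h. MIC was the concentration showing no growth.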

[2] = tested on: Torulopsis glabrata B. 16205
In short: as §1

[3] = tested on: Aspergillus niger A. 16404
In short: as §1

[4] = tested on: Candida krusei K. 11655
In short: as §1

[5] = tested on: Candida albicans IFO. 1385
In short: as §1

[6] = tested on: Trichophyton mentagrophytes B. 32663
In short: as §1

[7] = tested on: Candida albicans C1-2
In short: as §1

[8] = tested on: Cryptococcus neoformans IFM. 40092
In short: as §1

[9] = tested on: Candida pseudotropicalis K. 11658
In short: as §1

[10] = tested on: Candida tropicalis A. 13803
In short: as §1

[11] = tested on: Cryptococcus neoformans B. 42419
In short: as §1

[12] = tested on: Aspergillus furnigatus B. 19119
In short: as §1

[13] = tested on: Candida parapsitosis A. 7330
In short: as §1

[14] = tested on: Cryptococcus neoformans A. 34144
In short: as §1

[15] = tested on: Trichophyton mentagrophytes A. 9129
In short: as §1

FC(=Cc1ccc(F)cc1)Oc1ccc(OCC2COC(Cn3ccnc3)(c3ccc(Cl)cc3Cl)O2)cc1 (mixture of isomers) [Ex. 92]
Minimal inhibitory concentration(MIC), C. albicans A. 10231 [1]: 25.0 µg/mL
Minimal inhibitory concentration(MIC), T. glabrata B. 16205 [2]: 50.0 µg/mL
Minimal inhibitory concentration(MIC), A. niger A. 16404 [3]: >100 µg/mL
Minimal inhibitory concentration(MIC), C. krusei K. 11655 [4]: >100 µg/mL
Minimal inhibitory concentration(MIC), C. albicans IFO. 1385 [5]: 3.13 µg/mL
Minimal inhibitory concentration(MIC), T. mentagrophytes B. 32663 [6]: 12.5 µg/mL
Minimal inhibitory concentration(MIC), C. albicans C1-2 [7]: 50.0 µg/mL
Minimal inhibitory concentration(MIC), Cry. neoformans IFM. 40092 [8]: 0.78 µg/mL
Minimal inhibitory concentration(MIC), C. pseudotropicalis K. 11658 [9]: >100 µg/mL
Minimal inhibitory concentration(MIC), C. tropicalis A. 13803 [10]: >100 µg/mL
Minimal inhibitory concentration(MIC), Cry. neoformans B. 42419 [11]: 3.13 µg/mL
Minimal inhibitory concentration(MIC), A furnigatus B. 19119 [12]: >100 µg/mL
Minimal inhibitory concentration(MIC), C. parapsitosis A. 7330 [13]: >100 µg/mL
Minimal inhibitory concentration(MIC), Cry. neoformans A. 34144 [14]: 3.13 µg/mL
Minimal inhibitory concentration(MIC), T. mentagrophytes A. 9129 [15]: 25.0 µg/mL

FC(Oc1ccc(OCC2COC(Cn3ccnc3)(c3ccc(Cl)cc3Cl)O2)cc1)=C(c1ccccc1)C(F)(F)F (mixture of isomers) [Ex. 93]
Minimal inhibitory concentration(MIC), C. albicans A. 10231 [1]: 100 µg/mL
Minimal inhibitory concentration(MIC), T. glabrata B. 16205 [2]: 100 µg/mL
Minimal inhibitory concentration(MIC), A. niger A. 16404 [3]: >100 µg/mL
Minimal inhibitory concentration(MIC), C. krusei K. 11655 [4]: >100 µg/mL
Minimal inhibitory concentration(MIC), C. albicans IFO. 1385 [5]: 6.25 µg/mL
Minimal inhibitory concentration(MIC), T. mentagrophytes B. 32663 [6]: 25.0 µg/mL
Minimal inhibitory concentration(MIC), C. albicans C1-2 [7]: >100 µg/mL
Minimal inhibitory concentration(MIC), Cry. neoformans IFM. 40092 [8]: 1.56 µg/mL
Minimal inhibitory concentration(MIC), C. pseudotropicalis K. 11658 [9]: >100 µg/mL
Minimal inhibitory concentration(MIC), C. tropicalis A. 13803 [10]: >100 µg/mL
Minimal inhibitory concentration(MIC), Cry. neoformans B. 42419 [11]: >100 µg/mL
Minimal inhibitory concentration(MIC), A furnigatus B. 19119 [12]: >100 µg/mL
Minimal inhibitory concentration(MIC), C. parapsitosis A. 7330 [13]: >100 µg/mL
Minimal inhibitory concentration(MIC), Cry. neoformans A. 34144 [14]: 12.5 µg/mL
Minimal inhibitory concentration(MIC), T. mentagrophytes A. 9129 [15]: 25.0 µg/mL

Cc1ccc(C(=C(F)Oc2ccc(OCC3COC(Cn4ccnc4)(c4ccc(Cl)cc4Cl)O3)cc2)C(F)(F)F)cc1 (mixture of isomers) [Ex. 94]
Minimal inhibitory concentration(MIC), C. albicans A. 10231 [1]: 25.0 µg/mL
Minimal inhibitory concentration(MIC), T. glabrata B. 16205 [2]: 50.0 µg/mL
Minimal inhibitory concentration(MIC), A. niger A. 16404 [3]: >100 µg/mL
Minimal inhibitory concentration(MIC), C. krusei K. 11655 [4]: >100 µg/mL
Minimal inhibitory concentration(MIC), C. albicans IFO. 1385 [5]: 3.13 µg/mL
Minimal inhibitory concentration(MIC), T. mentagrophytes B. 32663 [6]: 12.5 µg/mL
Minimal inhibitory concentration(MIC), C. albicans C1-2 [7]: 50.0 µg/mL
Minimal inhibitory concentration(MIC), Cry. neoformans IFM. 40092 [8]: 0.78 µg/mL
Minimal inhibitory concentration(MIC), C. pseudotropicalis K. 11658 [9]: >100 µg/mL
Minimal inhibitory concentration(MIC), C. tropicalis A. 13803 [10]: >100 µg/mL
Minimal inhibitory concentration(MIC), Cry. neoformans B. 42419 [11]: 3.13 µg/mL
Minimal inhibitory concentration(MIC), A furnigatus B. 19119 [12]: >100 µg/mL
Minimal inhibitory concentration(MIC), C. parapsitosis A. 7330 [13]: >100 µg/mL
Minimal inhibitory concentration(MIC), Cry. neoformans A. 34144 [14]: 3.13 µg/mL
Minimal inhibitory concentration(MIC), T. mentagrophytes A. 9129 [15]: 25.0 µg/mL

FC(Oc1ccc(OCC2COC(Cn3ccnc3)(c3ccc(Cl)cc3Cl)O2)cc1)=C(c1cccc(C(F)(F)F)c1)C(F)(F)F (mixture of isomers) [Ex. 96]
Minimal inhibitory concentration(MIC), C. albicans A. 10231 [1]: 100 µg/mL
Minimal inhibitory concentration(MIC), T. glabrata B. 16205 [2]: 100 µg/mL
Minimal inhibitory concentration(MIC), A. niger A. 16404 [3]: >100 µg/mL
Minimal inhibitory concentration(MIC), C. krusei K. 11655 [4]: >100 µg/mL
Minimal inhibitory concentration(MIC), C. albicans IFO. 1385 [5]: 3.13 µg/mL
Minimal inhibitory concentration(MIC), T. mentagrophytes B. 32663 [6]: 6.25 µg/mL
Minimal inhibitory concentration(MIC), C. albicans C1-2 [7]: 100 µg/mL
Minimal inhibitory concentration(MIC), Cry. neoformans IFM. 40092 [8]: 0.39 µg/mL
Minimal inhibitory concentration(MIC), C. pseudotropicalis K. 11658 [9]: >100 µg/mL
Minimal inhibitory concentration(MIC), C. tropicalis A. 13803 [10]: >100 µg/mL
Minimal inhibitory concentration(MIC), Cry. neoformans B. 42419 [11]: 3.13 µg/mL
Minimal inhibitory concentration(MIC), A furnigatus B. 19119 [12]: 100 µg/mL
Minimal inhibitory concentration(MIC), C. parapsitosis A. 7330 [13]: >100 µg/mL
Minimal inhibitory concentration(MIC), Cry. neoformans A. 34144 [14]: 3.13 µg/mL
Minimal inhibitory concentration(MIC), T. mentagrophytes A. 9129 [15]: 12.5 µg/mL
